Data on four molecules can be found in ChEMBL document CHEMBL5291721, “A preclinical secondary pharmacology resource illuminates target-adverse drug reaction associations of marketed drugs” (Nat Commun, 2023).

For assay [1], the target named is T1, Adenosine receptor A1 (Homo sapiens, UniProt P30542).
T1 sequence (P30542 whole entry): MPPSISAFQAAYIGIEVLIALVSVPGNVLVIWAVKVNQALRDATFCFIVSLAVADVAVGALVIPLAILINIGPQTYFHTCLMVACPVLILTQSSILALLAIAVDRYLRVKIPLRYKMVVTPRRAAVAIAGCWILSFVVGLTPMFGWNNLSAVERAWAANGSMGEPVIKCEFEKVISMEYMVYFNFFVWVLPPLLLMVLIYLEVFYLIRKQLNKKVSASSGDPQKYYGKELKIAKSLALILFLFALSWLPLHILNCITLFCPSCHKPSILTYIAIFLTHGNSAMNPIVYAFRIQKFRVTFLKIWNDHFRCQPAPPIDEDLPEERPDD

The target in assay [2] is T2, Alpha-2A adrenergic receptor (Homo sapiens, UniProt P08913).
T2 sequence (P08913 whole entry): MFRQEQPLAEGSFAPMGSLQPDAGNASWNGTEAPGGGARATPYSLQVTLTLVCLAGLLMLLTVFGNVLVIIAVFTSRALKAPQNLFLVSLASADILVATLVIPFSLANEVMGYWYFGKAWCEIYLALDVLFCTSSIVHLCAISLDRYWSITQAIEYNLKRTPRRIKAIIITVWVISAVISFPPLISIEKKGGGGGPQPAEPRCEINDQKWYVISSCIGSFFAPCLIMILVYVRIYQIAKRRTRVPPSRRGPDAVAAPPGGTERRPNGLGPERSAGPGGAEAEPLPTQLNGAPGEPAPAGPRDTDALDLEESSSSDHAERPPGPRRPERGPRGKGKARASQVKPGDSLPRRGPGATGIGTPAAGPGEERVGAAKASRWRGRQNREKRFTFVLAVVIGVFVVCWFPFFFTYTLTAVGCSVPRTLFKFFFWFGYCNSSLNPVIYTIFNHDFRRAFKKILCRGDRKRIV
The assay is classed as functional, cell-based.

Assay [3] deals with T3, Estrogen receptor (Homo sapiens, UniProt P03372).
T3 sequence (P03372 whole entry): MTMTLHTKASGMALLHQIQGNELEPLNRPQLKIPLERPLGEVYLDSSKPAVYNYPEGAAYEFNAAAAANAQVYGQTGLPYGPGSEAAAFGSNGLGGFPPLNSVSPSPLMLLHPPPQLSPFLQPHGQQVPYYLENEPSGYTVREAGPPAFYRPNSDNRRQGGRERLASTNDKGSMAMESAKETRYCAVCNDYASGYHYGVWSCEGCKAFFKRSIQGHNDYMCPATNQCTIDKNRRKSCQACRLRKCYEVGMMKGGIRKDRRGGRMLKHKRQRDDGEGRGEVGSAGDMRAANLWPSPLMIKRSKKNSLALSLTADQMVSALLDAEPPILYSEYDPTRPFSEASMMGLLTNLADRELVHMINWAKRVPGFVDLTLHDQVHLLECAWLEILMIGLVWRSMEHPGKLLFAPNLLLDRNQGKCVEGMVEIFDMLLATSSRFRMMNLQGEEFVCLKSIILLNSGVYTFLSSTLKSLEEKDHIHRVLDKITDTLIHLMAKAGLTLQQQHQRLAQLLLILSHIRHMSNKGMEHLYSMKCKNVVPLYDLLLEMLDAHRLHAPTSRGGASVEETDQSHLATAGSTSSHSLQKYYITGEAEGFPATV

Assay [4] deals with T4, Prostaglandin G/H synthase 1 (Rattus norvegicus, UniProt Q63921).
T4 sequence (Q63921 whole entry): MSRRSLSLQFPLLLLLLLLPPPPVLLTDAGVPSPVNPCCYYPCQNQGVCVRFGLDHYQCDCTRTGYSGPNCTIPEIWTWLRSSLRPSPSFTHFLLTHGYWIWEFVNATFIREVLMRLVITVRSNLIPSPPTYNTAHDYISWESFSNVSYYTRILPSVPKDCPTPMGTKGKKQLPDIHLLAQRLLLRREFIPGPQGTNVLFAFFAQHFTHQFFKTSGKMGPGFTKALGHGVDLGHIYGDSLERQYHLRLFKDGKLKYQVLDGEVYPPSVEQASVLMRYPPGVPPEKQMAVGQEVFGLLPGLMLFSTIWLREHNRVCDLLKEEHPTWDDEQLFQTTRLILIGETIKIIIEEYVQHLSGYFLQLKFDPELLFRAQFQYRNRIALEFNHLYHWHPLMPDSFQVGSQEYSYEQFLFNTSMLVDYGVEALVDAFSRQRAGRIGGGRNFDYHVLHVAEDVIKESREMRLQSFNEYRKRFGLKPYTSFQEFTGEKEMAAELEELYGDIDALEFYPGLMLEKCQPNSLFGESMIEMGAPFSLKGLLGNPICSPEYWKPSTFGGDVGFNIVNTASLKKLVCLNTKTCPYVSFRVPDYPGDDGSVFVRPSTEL
It is filed as functional.

Assay [5] has as its target Sodium-dependent dopamine transporter (Homo sapiens, UniProt Q01959).
The target of assay [6] is Mu-type opioid receptor (Homo sapiens, UniProt P35372).
Assay [7] concerns the target Voltage-dependent L-type calcium channel subunit alpha-1C (Rattus norvegicus, UniProt P22002). It is filed as functional.
The target of assay [8] is T5, Muscarinic acetylcholine receptor M1 (Homo sapiens, UniProt P11229).
T5 sequence (P11229 whole entry): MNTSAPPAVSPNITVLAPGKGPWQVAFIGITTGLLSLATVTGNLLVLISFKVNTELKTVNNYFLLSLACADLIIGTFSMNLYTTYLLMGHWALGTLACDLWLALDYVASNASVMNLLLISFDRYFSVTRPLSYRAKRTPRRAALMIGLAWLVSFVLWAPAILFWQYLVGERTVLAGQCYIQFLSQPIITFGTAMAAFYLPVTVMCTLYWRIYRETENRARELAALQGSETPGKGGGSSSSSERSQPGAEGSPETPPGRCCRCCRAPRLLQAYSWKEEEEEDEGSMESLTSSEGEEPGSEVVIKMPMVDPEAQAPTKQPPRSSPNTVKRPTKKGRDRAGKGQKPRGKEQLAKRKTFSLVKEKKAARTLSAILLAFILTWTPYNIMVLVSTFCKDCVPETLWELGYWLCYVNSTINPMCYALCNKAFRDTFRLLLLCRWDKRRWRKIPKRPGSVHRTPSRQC
It is filed as functional, cell-based.

Assay [9] addresses Sodium-dependent serotonin transporter (Homo sapiens, UniProt P31645).
Note: assay procedure not described here.

Chain of Sodium-dependent dopamine transporter (Q01959 whole entry): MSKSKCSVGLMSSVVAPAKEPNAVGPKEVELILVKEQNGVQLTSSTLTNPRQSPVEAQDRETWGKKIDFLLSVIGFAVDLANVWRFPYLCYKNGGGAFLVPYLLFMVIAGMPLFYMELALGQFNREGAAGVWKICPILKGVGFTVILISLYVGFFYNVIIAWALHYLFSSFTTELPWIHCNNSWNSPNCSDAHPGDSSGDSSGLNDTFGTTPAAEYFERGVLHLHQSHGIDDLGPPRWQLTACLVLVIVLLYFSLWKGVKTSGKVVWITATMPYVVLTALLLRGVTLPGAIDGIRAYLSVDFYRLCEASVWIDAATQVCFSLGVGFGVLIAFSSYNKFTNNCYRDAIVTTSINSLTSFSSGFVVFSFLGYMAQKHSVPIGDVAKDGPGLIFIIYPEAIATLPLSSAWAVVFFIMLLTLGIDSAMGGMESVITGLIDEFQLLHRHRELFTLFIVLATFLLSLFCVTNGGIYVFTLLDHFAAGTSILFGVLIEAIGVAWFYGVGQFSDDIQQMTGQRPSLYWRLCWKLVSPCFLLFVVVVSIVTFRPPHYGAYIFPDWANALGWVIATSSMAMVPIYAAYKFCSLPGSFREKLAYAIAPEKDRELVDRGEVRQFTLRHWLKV
Chain of Voltage-dependent L-type calcium channel subunit alpha-1C (P22002 whole entry): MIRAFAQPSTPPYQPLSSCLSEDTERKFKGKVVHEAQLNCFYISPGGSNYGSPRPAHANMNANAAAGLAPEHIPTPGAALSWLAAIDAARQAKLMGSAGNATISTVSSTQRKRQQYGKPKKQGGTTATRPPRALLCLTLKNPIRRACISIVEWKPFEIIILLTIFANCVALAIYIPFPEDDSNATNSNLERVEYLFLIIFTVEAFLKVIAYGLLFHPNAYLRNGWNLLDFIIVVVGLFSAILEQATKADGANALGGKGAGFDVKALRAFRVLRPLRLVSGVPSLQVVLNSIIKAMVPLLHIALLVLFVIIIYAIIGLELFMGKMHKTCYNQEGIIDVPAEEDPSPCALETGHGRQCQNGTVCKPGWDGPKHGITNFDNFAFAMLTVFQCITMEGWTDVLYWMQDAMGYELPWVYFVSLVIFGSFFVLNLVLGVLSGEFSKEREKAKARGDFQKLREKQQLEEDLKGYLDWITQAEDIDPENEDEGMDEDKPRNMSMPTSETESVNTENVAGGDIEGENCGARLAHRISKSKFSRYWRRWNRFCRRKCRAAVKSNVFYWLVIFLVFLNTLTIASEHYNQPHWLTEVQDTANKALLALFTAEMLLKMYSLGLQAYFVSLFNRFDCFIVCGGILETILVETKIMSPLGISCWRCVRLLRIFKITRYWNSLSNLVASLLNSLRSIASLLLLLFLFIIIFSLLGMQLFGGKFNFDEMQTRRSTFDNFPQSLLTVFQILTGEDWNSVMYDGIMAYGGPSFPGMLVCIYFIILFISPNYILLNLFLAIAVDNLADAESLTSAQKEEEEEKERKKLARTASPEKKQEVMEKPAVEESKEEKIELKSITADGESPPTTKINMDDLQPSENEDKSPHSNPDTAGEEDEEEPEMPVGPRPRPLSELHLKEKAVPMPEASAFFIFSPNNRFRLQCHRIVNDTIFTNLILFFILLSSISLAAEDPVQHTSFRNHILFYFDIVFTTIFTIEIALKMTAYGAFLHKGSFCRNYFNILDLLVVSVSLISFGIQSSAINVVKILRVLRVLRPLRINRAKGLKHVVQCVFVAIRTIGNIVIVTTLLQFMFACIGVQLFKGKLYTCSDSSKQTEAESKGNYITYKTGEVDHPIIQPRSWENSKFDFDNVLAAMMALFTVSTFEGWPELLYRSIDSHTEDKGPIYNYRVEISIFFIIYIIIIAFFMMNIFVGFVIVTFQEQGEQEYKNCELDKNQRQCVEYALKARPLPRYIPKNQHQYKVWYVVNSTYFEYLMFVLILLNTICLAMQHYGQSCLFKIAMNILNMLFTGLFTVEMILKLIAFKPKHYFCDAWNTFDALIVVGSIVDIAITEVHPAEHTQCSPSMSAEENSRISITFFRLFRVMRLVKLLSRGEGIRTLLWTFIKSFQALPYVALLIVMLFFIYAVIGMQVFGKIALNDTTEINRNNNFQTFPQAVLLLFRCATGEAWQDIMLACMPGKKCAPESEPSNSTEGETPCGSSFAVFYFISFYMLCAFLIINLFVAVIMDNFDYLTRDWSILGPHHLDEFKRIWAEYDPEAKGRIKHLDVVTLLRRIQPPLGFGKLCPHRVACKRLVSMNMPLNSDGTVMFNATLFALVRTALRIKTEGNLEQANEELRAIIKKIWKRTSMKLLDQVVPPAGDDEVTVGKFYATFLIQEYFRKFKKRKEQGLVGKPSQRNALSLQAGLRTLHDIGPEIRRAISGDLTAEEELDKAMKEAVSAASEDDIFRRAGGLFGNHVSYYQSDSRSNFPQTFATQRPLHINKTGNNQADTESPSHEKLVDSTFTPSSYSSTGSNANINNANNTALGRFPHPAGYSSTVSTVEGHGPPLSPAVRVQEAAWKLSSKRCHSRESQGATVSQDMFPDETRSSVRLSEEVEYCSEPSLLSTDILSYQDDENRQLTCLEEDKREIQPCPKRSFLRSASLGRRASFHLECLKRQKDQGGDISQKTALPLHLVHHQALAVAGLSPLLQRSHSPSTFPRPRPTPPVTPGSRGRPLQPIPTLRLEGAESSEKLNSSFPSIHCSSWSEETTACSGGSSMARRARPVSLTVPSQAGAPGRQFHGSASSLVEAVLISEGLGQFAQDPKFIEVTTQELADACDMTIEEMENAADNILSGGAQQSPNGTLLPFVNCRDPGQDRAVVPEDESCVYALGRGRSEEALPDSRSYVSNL
Chain of Mu-type opioid receptor (P35372 whole entry): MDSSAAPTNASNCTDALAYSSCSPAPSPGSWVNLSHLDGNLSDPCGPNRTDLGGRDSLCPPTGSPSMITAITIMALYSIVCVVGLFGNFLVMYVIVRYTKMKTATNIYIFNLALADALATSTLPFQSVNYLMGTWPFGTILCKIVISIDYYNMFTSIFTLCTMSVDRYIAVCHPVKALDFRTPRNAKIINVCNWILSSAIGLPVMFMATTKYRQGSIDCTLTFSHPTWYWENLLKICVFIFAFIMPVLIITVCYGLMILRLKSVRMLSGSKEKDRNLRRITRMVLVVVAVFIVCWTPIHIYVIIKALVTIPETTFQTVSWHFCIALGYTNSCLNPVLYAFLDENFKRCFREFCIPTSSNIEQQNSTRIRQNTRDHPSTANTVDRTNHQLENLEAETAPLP
Chain of Sodium-dependent serotonin transporter (P31645 whole entry): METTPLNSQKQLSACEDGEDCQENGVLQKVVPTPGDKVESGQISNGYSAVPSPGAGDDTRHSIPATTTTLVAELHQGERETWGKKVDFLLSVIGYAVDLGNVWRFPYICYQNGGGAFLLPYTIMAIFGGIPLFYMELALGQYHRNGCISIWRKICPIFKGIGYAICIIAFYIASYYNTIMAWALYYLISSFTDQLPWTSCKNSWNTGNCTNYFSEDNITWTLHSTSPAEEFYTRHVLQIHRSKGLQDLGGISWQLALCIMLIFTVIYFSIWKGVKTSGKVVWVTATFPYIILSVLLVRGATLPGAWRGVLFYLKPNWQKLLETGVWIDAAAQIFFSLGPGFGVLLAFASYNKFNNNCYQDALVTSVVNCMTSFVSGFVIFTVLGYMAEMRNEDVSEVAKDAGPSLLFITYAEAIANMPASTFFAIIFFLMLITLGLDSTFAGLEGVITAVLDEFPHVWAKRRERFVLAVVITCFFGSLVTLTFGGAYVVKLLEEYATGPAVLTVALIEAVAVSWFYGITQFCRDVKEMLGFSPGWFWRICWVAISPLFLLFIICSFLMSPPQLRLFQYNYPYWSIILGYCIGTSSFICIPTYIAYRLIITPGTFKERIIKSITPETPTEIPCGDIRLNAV

Take `C#Cc1cccc(Nc2ncnc3cc(OCCOC)c(OCCOC)cc23)c1` [ERLOTINIB]: the concentration at half-maximal activity (AC50) (in general, the midpoint of the concentration-response curve, whichever way the signal moves) is more than 30 µM in [1]; more than 30 µM in [2]; more than 30 µM in assay [3]; more than 30 µM in assay [4]; more than 30 µM in assay [5]; 29 µM in assay [6].

Consider `CC(=O)/N=c1/sc(S(N)(=O)=O)nn1C` [METHAZOLAMIDE], for which the half-maximal activity concentration (AC50) in assay [1] is more than 10 µM; in assay [2], more than 10 µM; in assay [7] it was more than 10 µM; in assay [8], more than 30 µM; in [3], more than 30 µM; in assay [4], more than 10 µM. Further, the results for the half-maximal activity concentration (AC50) in assay [9], in [5] and in [6] were more than 30 µM, more than 10 µM and more than 30 µM, respectively.

For `CNC[C@H](O)c1cccc(O)c1` [PHENYLEPHRINE], the AC50 in assay [1] was more than 30 µM; in [7], more than 10 µM; in [8], more than 30 µM; in assay [4], more than 30 µM; in assay [9], more than 30 µM; in assay [5], more than 10 µM. The concentration at half-maximal activity (AC50) in assay [6] is more than 10 µM.

In the case of `CC1(C)O[C@@H]2[C@@H](CO[C@@]3(COS(N)(=O)=O)OC(C)(C)O[C@@H]23)O1` [TOPIRAMATE], the AC50 was more than 30 µM in [1]; more than 10 µM in assay [2]; more than 10 µM in [7]; more than 30 µM in assay [8]; more than 30 µM in assay [3]; more than 30 µM in [4]. Also, the AC50 in assay [9] was more than 30 µM; in [5], more than 10 µM; in assay [6], more than 10 µM.
